Read-outs that look alike come from different tables or passages of the source.

Data set [1] concerns the target T1, human sAC (Homo sapiens, UniProt Q96PN6).
T1 construct: made in house
T1 sequence (Q96PN6 1-469 limits assumed): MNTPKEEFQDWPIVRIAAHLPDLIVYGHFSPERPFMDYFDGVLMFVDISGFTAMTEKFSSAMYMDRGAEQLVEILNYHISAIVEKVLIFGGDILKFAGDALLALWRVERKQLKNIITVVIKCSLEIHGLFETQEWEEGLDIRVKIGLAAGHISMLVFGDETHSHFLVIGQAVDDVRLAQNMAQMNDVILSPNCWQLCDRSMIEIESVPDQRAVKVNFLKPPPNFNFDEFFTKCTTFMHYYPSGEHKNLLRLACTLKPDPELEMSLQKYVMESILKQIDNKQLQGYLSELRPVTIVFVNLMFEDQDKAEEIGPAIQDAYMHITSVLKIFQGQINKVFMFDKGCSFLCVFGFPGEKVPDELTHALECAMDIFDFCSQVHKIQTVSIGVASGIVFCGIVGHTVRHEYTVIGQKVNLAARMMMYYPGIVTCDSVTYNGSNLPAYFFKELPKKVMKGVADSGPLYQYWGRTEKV
Briefly: in vitro adenylyl cyclase assay with purified human sAC protein (cAMP by Correlate-EIA). In kind it is biochemical. The conditions noted are these: for inhibition at 100 µM: 100 μM of compound. The procedure: Purified human sAC protein was used in an in vitro adenylyl cyclase assay. Purification of the protein is described in detail in Litvin et al. 2003. (J. Biol. Chem. 278:15922-15926). This paper also describes the general conditions for a sAC cyclase assay. The specific conditions for the in vitro assay are as follows.
For basal sAC activity, an assay master mixture with sufficient volume for all reactions was prepared containing:
100 U/ml creatine phosphokinase (CPK)
An aliquot of the master mixture was added to the purified human sAC. The assay mixture also included the indicated concentration of KH compound, or an equivalent volume of vehicle (i.e., DMSO) as control. The reaction was started by adding 5 mM ATP (total assay volume=100 μL). The reaction mixture was incubated at 30° C. for 30 minutes and then stopped by adding 100 μl […]. Stimulated assay conditions involve adding 40 mM bicarbonate and 5 mM CaCl2 to the above master mixture.
Cyclic AMP levels were measured in each sample using the Correlate-EIA Direct Cyclic AMP assay kit from Assay Designs as per manufacturers instructions.

The test system of data set [2] is endogenous transmembrane adenylyl cyclases. Briefly: cellular cAMP accumulation assay in 293T cells + IBMX + forskolin. As to conditions: for IC50: 293T cells, 500 μM IBMX and 10 μM forskolin, endogenous tmAC activity, read-out: 293T + FSK. Format: cell-based, human. The procedure:
(§1) 293T cells or 4-4 cells (hsACt stably transfected into 293T) were grown in 75 cm2 Tissue Culture Flasks until nearly confluent using DMEM (10% FBS, 1% L-Glutamine, 1% Penicillin/Streptomycin). Cells were released from the flask with 3 ml of trypsin followed by addition of 7 ml of DMEM to neutralize the trypsin. Cells were mixed by pipetting up and down with 10 ml serological pipette. To a 3 ml aliquot of the cell mixture, 6 ml of DMEM (prewarmed to 37° C.) was added followed by thorough mixing by picking up the entire 9 mls using a repeat pipettor, and slowly pipetting out against the wall of container. This was repeated this ten times to ensure the mixture in homogenous. 100 μL of cells were then added to each pre-siliconized 1.7 ml Eppindorf tubes (Costar #3207) followed by a 60 min incubation at 37° C. and 5% CO2. This incubation was performed in 20-tube, round, floating racks (VWR #60986-100), which enable a quick transfer of the samples to a water bath, and the ability to mix several samples simultaneously. Following the incubation, 1 μL of the compound in DMSO was added (or just DMSO for controls). The cells were mixed before and after adding the compound, by a brief (and light) vortexing. The compounds were added while the cells were in the 37° C. water bath, followed by a 10 min incubation at 37° C. and 5% CO2. Following this incubation, 1 μL it of IBMX or 1 μL of IBMX+Forskolin was added with Repeat Pipettor. The 4-4 cells receive the IBMX to a final concentration of 500 μM IBMX. The 293T cells receive IBMX and Forskolin to final concentration of 500 μM IBMX and 10 μM, respectively. Both the IBMX mix (for 4-4 cells), and the IBMX/FSK mix (for 293T cells) were 100×, and were dissolved in DMSO. Cells were mixed and incubated at 37° C. and 5% CO2 for 15 min. The assay was stopped by placing the cells in an ice bath. Cells were pelleted by centrifugation at 2000×G for 7 min at 4° C. The supernatant was aspirated and 250 μL of 0.1 N HCl was added to each cell pellet followed by through vortexing for 1 min. Following a 10 min incubation at room temperature, 30 μL of each sample was added to 70 μL of 0.1 N HCl and the cAMP levels were measured using the protocol for the Direct Cyclic AMP Kit (Assay Designs, Inc. #901-066). This 30 μL plus 70 μL of 0.1 N HCl makes up the sample described in step 5 of the Assay Designs' protocol. The samples should lie in the linear range of the assay.
Background: cAMP levels reflect the balance of adenylyl cyclase and phosphodiesterase activity.

For data set [3], the target named is T1, human sAC. Briefly: cellular cAMP accumulation assay in 4-4 cells (hsACt stably transfected into 293T), IBMX. In kind it is cell-based. The conditions noted are these: for IC50: stable cell line overexpressing human sAC, 500 μM IBMX, read-out: 4-4, Basal approximate IC50 (or the dose range where the IC50 should lie). The procedure: as §1, with “cells (hsACt” left out, “The 293T cells receive IBMX and Forskolin to final concentration of 500 μM IBMX and 10 μM, respectively.” left out

The mark [4] stands for this setting: BASAL human sAC in vitro activity, read-out: % Inhibition (100 μM), hsACt-Basal.
[5] abbreviates: stimulated human sAC in vitro activity, read-out: % Inhibition (100 μM), hsACt-Stim.
The mark [6] stands for this setting: BASAL activity of human sAC in vitro (just Mg-ATP, no calcium or bicarbonate), read-out: hsACt-Basal approximate IC50 (or the dose range where the IC50 should lie).
Where [7] appears, read: stimulated activity of human sAC in vitro (calcium and bicarbonate stimulated), read-out: hsACt-Stim. approximate IC50 (or the dose range where the IC50 should lie).

For the compound `C/C(=N\NC(=O)CSc1nc2ccccc2[nH]1)c1ccco1` [KH7.109], the inhibition at 100 µM in data set [1] (setting [4]) and in data set [1] (setting [5]) was 0% each time. In addition, the IC50 in data set [1] (setting [6]) is above 100 µM; in data set [1] (setting [7]) it was above 100 µM; in data set [2], above 120 µM; in data set [3], around 120 µM.

Consider `COc1cc(/C(C)=N\NC(=O)CSc2nc3ccccc3[nH]2)ccc1O` [KH7.114], for which the inhibition at 100 µM in data set [1] (setting [4]) and in data set [1] (setting [5]) was 0% in each case. For the same compound, the IC50 is above 100 µM in data set [1] (setting [6]), above 100 µM in data set [1] (setting [7]), above 500 µM in data set [2] and 56 to 167 µM in data set [3].

For the compound `O=C(CSc1nc2ccccc2[nH]1)N/N=C/c1cccc(Br)c1` [KH7.104], the inhibition at 100 µM was determined as 70% in data set [1] (setting [4]) and 85% in data set [1] (setting [5]). Also, the IC50 in data set [1] (setting [6]) is 10 to 100 µM; in data set [1] (setting [7]) it was 10 to 100 µM; in data set [2], 60 to 120 µM; in data set [3] it was 15 µM.

On to `CC(Sc1nc2ccccc2[nH]1)C(=O)N/N=C/c1ccc([N+](=O)[O-])cc1` (centres unmarked) [KH7.101], for which the inhibition at 100 µM in data set [1] (setting [4]) and in data set [1] (setting [5]) was 50% each time. The IC50 in data set [1] (setting [6]) was 10 to 100 µM; in data set [1] (setting [7]), 10 to 100 µM; in data set [2], above 120 µM; in data set [3] it was 30 µM.

`CCCOc1ccc(/C=N/NC(=O)CSc2nc3ccccc3[nH]2)cc1` [KH7.111]: the inhibition at 100 µM in data set [1] (setting [4]) and in data set [1] (setting [5]) was 70% throughout. Also, the IC50 in data set [1] (setting [6]) is 10 to 100 µM; in data set [1] (setting [7]) it was 10 to 100 µM; in data set [2], 120 µM; in data set [3], 3 to 30 µM.

For `COc1ccc(/C(C)=N\NC(=O)CSc2nc3ccccc3[nH]2)cc1` [KH7.106], the IC50 in data set [2] was above 500 µM.

As for `C/C(=N\NC(=O)CSc1nc2ccccc2[nH]1)c1ccc(Br)cc1` [KH7.107], the inhibition at 100 µM in data set [1] (setting [4]) and in data set [1] (setting [5]) was 95% throughout. In addition, the IC50 in data set [1] (setting [6]) was 10 to 100 µM; in data set [1] (setting [7]), 10 to 100 µM; in data set [2], above 120 µM; in data set [3] it was 60 to 120 µM.

Regarding `C/C(=N\NC(=O)CSc1nc2ccccc2[nH]1)c1ccc(Cl)cc1` [KH7.110], the inhibition at 100 µM in data set [1] (setting [4]) and in data set [1] (setting [5]) was 90% throughout. For the same compound, the IC50 in data set [1] (setting [6]) is 10 to 100 µM; in data set [1] (setting [7]) it was 10 to 100 µM; in data set [2] it was above 120 µM; in data set [3] it was 30 to 60 µM.

`O=C(CSc1nc2ccccc2[nH]1)N/N=C/c1ccc(Cl)cc1Cl` [KH7.105]: the inhibition at 100 µM in data set [1] (setting [4]) and in data set [1] (setting [5]) was 90% each time. Besides, the IC50 was 10 to 100 µM in data set [1] (setting [6]), 10 to 100 µM in data set [1] (setting [7]), 60 µM in data set [2] and 15 µM in data set [3].

Take `C/C(=N/NC(=O)CSc1nc2ccccc2[nH]1)c1ccncc1` [KH7.117]: the inhibition at 100 µM in data set [1] (setting [4]) and in data set [1] (setting [5]) was 0% throughout. The IC50 is above 100 µM in data set [1] (setting [6]), above 100 µM in data set [1] (setting [7]), above 500 µM in data set [2] and 167 to 500 µM in data set [3].

In the case of `O=C(CSc1nc2ccccc2[nH]1)NCCc1ccccc1` [KH7.102], the inhibition at 100 µM in data set [1] (setting [4]) and in data set [1] (setting [5]) was 0% in each case. Also, the IC50 in data set [1] (setting [6]) was above 100 µM; in data set [1] (setting [7]), above 100 µM; in data set [2] it was above 500 µM; in data set [3], 100 µM.

Take `C/C(=N\NC(=O)CSc1nc2ccccc2[nH]1)c1ccccc1` [KH7.108]: the inhibition at 100 µM in data set [1] (setting [4]) and in data set [1] (setting [5]) was 0% each time. Further, the IC50 in data set [1] (setting [6]) is above 100 µM; in data set [1] (setting [7]), above 100 µM; in data set [2], 60 to 120 µM; in data set [3] it was 30 to 60 µM. Further, the “cellular toxicity remark, 293T + FSK” value in data set [2] (293T cells + FSK) was “may be cellular toxicity”. In addition, the “cellular toxicity remark, 4-4 Basal” value in data set [3] (4-4 cells) is “may be cellular toxicity”.

On to `O=C(CSc1nc2ccccc2[nH]1)N/N=C/c1cc(Br)ccc1O` [KH7.103], for which the inhibition at 100 µM in data set [1] (setting [4]) and in data set [1] (setting [5]) was 100% in each case. Besides, the IC50 in data set [1] (setting [6]) is 10 to 100 µM; in data set [1] (setting [7]), 10 to 100 µM; in data set [2], above 120 µM; in data set [3], 60 to 120 µM.

As for `Cn1c(SCC(=O)N/N=C/c2ccccn2)nc2ccccc21` [KH7.140], the inhibition at 100 µM in data set [1] (setting [4]) and in data set [1] (setting [5]) was 0% throughout. Further, the IC50 in data set [1] (setting [6]) and in data set [1] (setting [7]) was above 100 µM each time.

As for `C/C(=N\NC(=O)CSc1nc2ccccc2[nH]1)c1ccc([N+](=O)[O-])cc1` [KH7.138], the inhibition at 100 µM in data set [1] (setting [4]) was 30%; in data set [1] (setting [5]), 25%. In addition, the IC50 in data set [1] (setting [6]) and in data set [1] (setting [7]) was above 100 µM each time.

What is called inhibition is the relative decrease from the control value, in per cent.

The values above are taken from US9017681B2, “Adenylyl cyclases as novel targets for antibactrial interventions” (Cornell Research Foundation, Inc., priority 2007, dated 2015).
